From patent US9067977B2, “Peptides derivatized with A-B-C-D- and their therapeutical use” (Novo Nordisk A/S, priority 2007, dated 2015)
Starred links: 1 amine or outer side, 2 acyl side, 3 side chain; linkers in the order of their positions; H or OH if unused. Non-standard residues stand in square brackets, D forms with d. Residues, ends and D or L forms follow the SMILES beside them. Groups on a side chain read outwards from the residue. *: point of attachment. X1 = O=C(CCCCCCCCCCCCCCCc1nnn[nH]1)NS(=O)(=O)CCCC(=O)*; C20 diacid = O=C(O)CCCCCCCCCCCCCCCCCCC(=O)*; C18 diacid = O=C(O)CCCCCCCCCCCCCCCCC(=O)*; d(βAsp) = O=C(O)[C@@H](CC(=O)[*:2])N[*:1]; γGlu = O=C(O)[C@H](CCC(=O)[*:2])N[*:1]; Desaminohistidyl = O=C(CCc1c[nH]cn1)*; AEEA = NCCOCCOCC(=O)O; Aib = CC(C)(N)C(=O)O; Inp = O=C(O)C1CCNCC1; GABA = NCCCC(=O)O

Target: human serum albumin (HSA) (Homo sapiens, UniProt P02768)
Sequence (P02768 25-609): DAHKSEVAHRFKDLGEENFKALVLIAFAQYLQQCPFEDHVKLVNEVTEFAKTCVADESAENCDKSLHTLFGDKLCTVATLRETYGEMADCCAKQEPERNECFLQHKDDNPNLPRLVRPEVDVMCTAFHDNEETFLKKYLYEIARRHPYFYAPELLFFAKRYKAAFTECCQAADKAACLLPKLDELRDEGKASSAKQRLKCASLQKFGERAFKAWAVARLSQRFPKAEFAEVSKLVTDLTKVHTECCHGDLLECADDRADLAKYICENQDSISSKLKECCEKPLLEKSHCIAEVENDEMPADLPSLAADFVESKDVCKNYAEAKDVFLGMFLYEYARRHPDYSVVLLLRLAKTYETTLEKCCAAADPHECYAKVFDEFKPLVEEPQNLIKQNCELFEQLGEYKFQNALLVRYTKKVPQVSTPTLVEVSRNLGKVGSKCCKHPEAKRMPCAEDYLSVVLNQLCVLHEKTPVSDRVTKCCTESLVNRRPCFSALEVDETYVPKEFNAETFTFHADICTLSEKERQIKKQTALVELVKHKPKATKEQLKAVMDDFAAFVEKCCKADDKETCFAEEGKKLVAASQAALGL
Assay: Albumin binding affinity, competition scintillation proximity assay
Details: for EC50 at 20 h: human, biotinylated human serum albumin on streptavidin-SPA beads, pH 7.4
Procedure: Streptavidin-SPA beads (GE Healthcare RPNQ0009) were incubated with biotinylated HSA for 5 hours. The beads were washed with buffer to remove unbound HSA. […] After 20 hours of gentle rocking at room temperature the plates were centrifuged and counted on a TopCounter.

Row | EC50 | EC50 at 20 h | Compound
1 | 1 to 100 nM | – | CC[C@H](C)[C@H](NC(=O)[C@H](Cc1ccccc1)NC(=O)[C@H](CCC(=O)O)NC(=O)[C@H](CCCNC(=N)N)NC(=O)[C@H](C)NC(=O)[C@H](C)NC(=O)[C@H](CCC(N)=O)NC(=O)CNC(=O)[C@H](CCC(=O)O)NC(=O)[C@H](CC(C)C)NC(=O)[C@H](Cc1ccc(O)cc1)NC(=O)[C@H](CO)NC(=O)[C@H](CO)NC(=O)[C@@H](NC(=O)[C@H](CC(=O)O)NC(=O)[C@H](CO)NC(=O)[C@@H](NC(=O)[C@H](Cc1ccccc1)NC(=O)[C@@H](NC(=O)CNC(=O)[C@H](CCC(=O)O)NC(=O)[C@H](C)NC(=O)CCc1c[nH]cn1)[C@@H](C)O)[C@@H](C)O)C(C)C)C(=O)N[C@@H](C)C(=O)N[C@@H](Cc1c[nH]c2ccccc12)C(=O)N[C@@H](CC(C)C)C(=O)N[C@H](C(=O)N[C@@H](CCCNC(=N)N)C(=O)NCC(=O)N[C@@H](CCCNC(=N)N)C(=O)N[C@@H](CCCCNC(=O)COCCOCCNC(=O)CC[C@H](NC(=O)CC[C@H](NC(=O)CCCCCCCCCCCNC(=O)CCCS(=O)(=O)NC(=O)CCCCCCCCCCCCCCCc1nnn[nH]1)C(=O)O)C(=O)O)C(N)=O)C(C)C [Example 50]
2 | – | 100 to 150 nM | CC[C@H](C)[C@H](NC(=O)[C@H](Cc1ccccc1)NC(=O)[C@H](CCC(=O)O)NC(=O)[C@H](CCCNC(=N)N)NC(=O)[C@H](C)NC(=O)[C@H](C)NC(=O)[C@H](CCC(N)=O)NC(=O)[C@H](CCC(=O)O)NC(=O)[C@H](CCC(=O)O)NC(=O)[C@H](CC(C)C)NC(=O)[C@H](Cc1ccc(O)cc1)NC(=O)[C@H](CO)NC(=O)[C@H](CO)NC(=O)[C@@H](NC(=O)[C@H](CC(=O)O)NC(=O)[C@H](CO)NC(=O)[C@@H](NC(=O)[C@H](Cc1ccccc1)NC(=O)[C@@H](NC(=O)CNC(=O)[C@H](CCC(=O)O)NC(=O)[C@H](C)NC(=O)CCc1c[nH]cn1)[C@@H](C)O)[C@@H](C)O)C(C)C)C(=O)N[C@@H](C)C(=O)N[C@@H](Cc1c[nH]c2ccccc12)C(=O)N[C@@H](CC(C)C)C(=O)N[C@H](C(=O)N[C@@H](CCCNC(=N)N)C(=O)NCC(=O)N[C@@H](CCCNC(=N)N)C(=O)NCC(=O)N[C@@H](CCCCNC(=O)CC[C@H](NC(=O)COCCOCCNC(=O)CC[C@H](NC(=O)C1CCN(C(=O)CCCCCCCCCCCCCCCCCCC(=O)O)CC1)C(=O)O)C(=O)O)C(=O)O)C(C)C [Example 57, [DesaminoHis7,Glu22,Arg26,34]-GLP-1 (7-37)-Lys((S)-4-carboxy-4-(2-{2-[2-((S)-4-carboxy-4-{[1-(19-carboxynonadecanoyl)piperidine-4-carbonyl]amino}butyrylamino)ethoxy]ethoxy}acetylamino)butyryl) peptide] (Desaminohistidyl-AEGTFTSDVSSYLEEQAAREFIAWLVRGRGK([γGlu-AEEA-γGlu-Inp-C20 diacid])-OH)
3 | – | 150 to 300 nM | CC[C@H](C)[C@H](NC(=O)[C@H](Cc1ccccc1)NC(=O)[C@H](CCC(=O)O)NC(=O)[C@H](CCCNC(=N)N)NC(=O)[C@H](C)NC(=O)[C@H](C)NC(=O)[C@H](CCC(N)=O)NC(=O)[C@H](CCC(=O)O)NC(=O)[C@H](CCC(=O)O)NC(=O)[C@H](CC(C)C)NC(=O)[C@H](Cc1ccc(O)cc1)NC(=O)[C@H](CO)NC(=O)[C@H](CO)NC(=O)[C@@H](NC(=O)[C@H](CC(=O)O)NC(=O)[C@H](CO)NC(=O)[C@@H](NC(=O)[C@H](Cc1ccccc1)NC(=O)[C@@H](NC(=O)CNC(=O)[C@H](CCC(=O)O)NC(=O)C(C)(C)NC(=O)[C@@H](N)Cc1c[nH]cn1)[C@@H](C)O)[C@@H](C)O)C(C)C)C(=O)N[C@@H](CCC(=O)O)C(=O)N[C@@H](Cc1c[nH]c2ccccc12)C(=O)N[C@@H](CC(C)C)C(=O)N[C@H](C(=O)N[C@@H](CCCCN)C(=O)NCC(=O)N[C@@H](CCCNC(=N)N)C(=O)N1CCC[C@H]1C(=O)N[C@@H](CCCCNC(=O)COCCOCCNC(=O)CC[C@H](NC(=O)CC[C@H](NC(=O)CCCNC(=O)CCCS(=O)(=O)NC(=O)CCCCCCCCCCCCCCCc1nnn[nH]1)C(=O)O)C(=O)O)C(=O)O)C(C)C [Example 51, [Aib8,Glu22,Arg26,Glu30,Pro37]GLP-1-(7-37)Lys [2-(2-{2-[4-Carboxy-4-(4-carboxy-4-{4-[4-(16-1H-tetrazol-5-yl-hexadecanoylsulfamoyl)butyrylamino]butyrylamino}butyrylamino)butyrylamino]ethoxy}ethoxy)acetyl]] (H-H[Aib]EGTFTSDVSSYLEEQAAREFIEWLVKGRPK([AEEA-γGlu-γGlu-GABA-X1])-OH)
4 | – | 1 to 100 nM | CC[C@H](C)[C@H](NC(=O)[C@H](Cc1ccccc1)NC(=O)[C@H](CCC(=O)O)NC(=O)[C@H](CCCCNC(=O)COCCOCCNC(=O)CC[C@H](NC(=O)CC[C@H](NC(=O)CCCCCNC(=O)CCCS(=O)(=O)NC(=O)CCCCCCCCCCCCCCCc1nnn[nH]1)C(=O)O)C(=O)O)NC(=O)[C@H](C)NC(=O)[C@H](C)NC(=O)[C@H](CCC(N)=O)NC(=O)CNC(=O)[C@H](CCC(=O)O)NC(=O)[C@H](CC(C)C)NC(=O)[C@H](Cc1ccc(O)cc1)NC(=O)[C@H](CO)NC(=O)[C@H](CO)NC(=O)[C@@H](NC(=O)[C@H](CC(=O)O)NC(=O)[C@H](CO)NC(=O)[C@@H](NC(=O)[C@H](Cc1ccccc1)NC(=O)[C@@H](NC(=O)CNC(=O)[C@H](CCC(=O)O)NC(=O)C(C)(C)NC(=O)[C@@H](N)Cc1c[nH]cn1)[C@@H](C)O)[C@@H](C)O)C(C)C)C(=O)N[C@@H](C)C(=O)N[C@@H](Cc1c[nH]c2ccccc12)C(=O)N[C@@H](CC(C)C)C(=O)N[C@H](C(=O)N[C@@H](CCCNC(=N)N)C(=O)O)C(C)C [Example 38, N-epsilon26-[2-(2-{2-[(S)-4-Carboxy-4-((S)-4-carboxy-4-{6-[4-(16-(1H-tetrazol-5-yl)hexadecanoylsulfamoyl)butyrylamino]hexanoylamino}butyrylamino)butyrylamino]ethoxy}ethoxy)acetyl][Aib8,Arg34]GLP-1-(7-34)]
5 | 150 to 300 nM | – | CC[C@H](C)[C@H](NC(=O)[C@H](Cc1ccccc1)NC(=O)[C@H](CCC(=O)O)NC(=O)[C@H](CCCCNC(=O)COCCOCCNC(=O)CC[C@H](NC(=O)CC[C@H](NC(=O)CCCCCNC(=O)CCCS(=O)(=O)NC(=O)CCCCCCCCCCCCCCCc1nnn[nH]1)C(=O)O)C(=O)O)NC(=O)[C@H](C)NC(=O)[C@H](C)NC(=O)[C@H](CCC(N)=O)NC(=O)CNC(=O)[C@H](CCC(=O)O)NC(=O)[C@H](CC(C)C)NC(=O)[C@H](Cc1ccc(O)cc1)NC(=O)[C@H](CO)NC(=O)[C@H](CO)NC(=O)[C@@H](NC(=O)[C@H](CC(=O)O)NC(=O)[C@H](CO)NC(=O)[C@@H](NC(=O)[C@H](Cc1ccccc1)NC(=O)[C@@H](NC(=O)CNC(=O)[C@H](CCC(=O)O)NC(=O)C(C)(C)NC(=O)[C@@H](N)Cc1c[nH]cn1)[C@@H](C)O)[C@@H](C)O)C(C)C)C(=O)N[C@@H](C)C(=O)N[C@@H](Cc1c[nH]c2ccccc12)C(=O)N[C@@H](CC(C)C)C(=O)N[C@H](C(=O)N[C@@H](CCCNC(=N)N)C(=O)NCC(=O)N[C@@H](CCCNC(=N)N)C(N)=O)C(C)C [Example 41, N-epsilon26-[2-(2-{2-[(S)-4-Carboxy-4-((S)-4-carboxy-4-{6-[4-(16-(1H-tetrazol-5-yl)hexadecanoylsulfamoyl)butyrylamino]hexanoylamino}butyrylamino)butyrylamino]ethoxy}ethoxy)acetyl][Aib8,Arg34]GLP-1-(7-36)amide]
6 | 300 to 800 nM | – | CC[C@H](C)[C@H](NC(=O)[C@H](Cc1ccccc1)NC(=O)[C@H](CCC(=O)O)NC(=O)[C@H](CCCNC(=N)N)NC(=O)[C@H](C)NC(=O)[C@H](C)NC(=O)[C@H](CCCCNC(=O)COCCOCCNC(=O)COCCOCCNC(=O)C[C@@H](NC(=O)C1CCN(C(=O)CCCCCCCCCCCCCCCCC(=O)O)CC1)C(=O)O)NC(=O)CNC(=O)[C@H](CCC(=O)O)NC(=O)[C@H](CC(C)C)NC(=O)[C@H](Cc1ccc(O)cc1)NC(=O)[C@H](CO)NC(=O)[C@H](CO)NC(=O)[C@@H](NC(=O)[C@H](CC(=O)O)NC(=O)[C@H](CO)NC(=O)[C@@H](NC(=O)[C@H](Cc1ccccc1)NC(=O)[C@@H](NC(=O)CNC(=O)[C@H](CCC(=O)O)NC(=O)C(C)(C)NC(=O)[C@@H](N)Cc1c[nH]cn1)[C@@H](C)O)[C@@H](C)O)C(C)C)C(=O)N[C@@H](C)C(=O)N[C@@H](Cc1c[nH]c2ccccc12)C(=O)N[C@@H](CC(C)C)C(=O)N[C@H](C(=O)N[C@@H](CCCNC(=N)N)C(=O)NCC(=O)N[C@@H](CCCNC(=N)N)C(=O)NCC(=O)O)C(C)C [Example 5] (H-H[Aib]EGTFTSDVSSYLEGK([AEEA-AEEA-d(βAsp)-Inp-C18 diacid])AAREFIAWLVRGRG-OH)
7 | – | 800 to 2000 nM | CC[C@H](C)[C@H](NC(=O)[C@H](Cc1ccccc1)NC(=O)[C@H](CCC(=O)O)NC(=O)[C@H](CCCNC(=N)N)NC(=O)[C@H](C)NC(=O)[C@H](C)NC(=O)[C@H](CCC(N)=O)NC(=O)C(C)(C)NC(=O)[C@H](CCC(=O)O)NC(=O)[C@H](CC(C)C)NC(=O)[C@H](Cc1ccc(O)cc1)NC(=O)[C@H](CCCCNC(=O)COCCOCCNC(=O)COCCOCCNC(=O)CC[C@H](NC(=O)C1CCN(C(=O)CCCCCCCCCCCCCCCCCCC(=O)O)CC1)C(=O)O)NC(=O)[C@H](CO)NC(=O)[C@@H](NC(=O)[C@H](CC(=O)O)NC(=O)[C@H](CO)NC(=O)[C@@H](NC(=O)[C@H](Cc1ccccc1)NC(=O)[C@@H](NC(=O)CNC(=O)[C@H](CCC(=O)O)NC(=O)C(C)(C)NC(=O)[C@@H](N)Cc1c[nH]cn1)[C@@H](C)O)[C@@H](C)O)C(C)C)C(=O)N[C@@H](C)C(=O)N[C@@H](Cc1c[nH]c2ccccc12)C(=O)N[C@@H](CC(C)C)C(=O)N[C@H](C(=O)N[C@@H](CCCNC(=N)N)C(=O)NC(C)(C)C(=O)N[C@@H](CCCNC(=N)N)C(=O)NCC(=O)O)C(C)C [Example 70] (H-H[Aib]EGTFTSDVSK([AEEA-AEEA-γGlu-Inp-C20 diacid])YLE[Aib]QAAREFIAWLVR[Aib]RG-OH)
